Marks after values point to notes of the source that are not given here. Where only a bound is given, the exact number is not on record here.

A short description of series [1]: UV absorbance spectra in water-dioxane mixtures (D50). In kind it is physicochemical. As to conditions: dioxane-H2O mixture (v/v: 90/10-10/90); dielectric constant at half-maximal zwitterion absorbance. The source says: The inventors' efforts to improve the permeability and fluorogenicity of rhodamine derivatives for live-cell imaging focused on increasing the propensity of rhodamines to form the spirocyclic, non-fluorescent form without affecting the spectroscopic properties of the parental molecule. The inventors initially considered replacing the carboxylic acid responsible for formation of the spirolactone with an amide. However, such rhodamine derivatives have been reported to strongly favor spirolactams at physiological pH, making them unsuitable for live-cell imaging. The inventors therefore attempted to destabilize the spirolactam by attaching different electron-withdrawing groups to the underlying amides. Specifically, the inventors converted 6-carboxytetramethylrhodamine (6-TAMRA), a widely used fluorophore with good photophysical properties, into the corresponding acyl cyanamide (132), acyl sulfonamide (133) and acyl sulfamide (134 and 135), (FIG. 32c). The acyl cyanamide of rhodamine B was previously reported to exist as a fluorescent zwitterion at physiological pH. Acyl sulfonamides and acyl sulfamides are used in medicinal chemistry as anionic pharmacophores. Amides 132-135 were prepared in three simple steps from commercially available 6-TAMRA (FIG. 32c). To investigate the propensity of these amides to form the corresponding spirolactams, the inventors measured their absorbance spectra in water-dioxane mixtures with […]. The equilibrium between the zwitterionic and spirocyclic form can then be characterized by the D50 value, which is defined as the dielectric constant at which absorbance of the fluorescent zwitterion is decreased by half compared to the highest recorded absorbance value measured in dioxane-water mixtures. […] In comparison, the D50 value of TAMRA is around 10 showing that in aqueous solution TAMRA exists predominantly in its open form and TAMRA-based probes are usually not fluorogenic. The measured D50 values of amides 132-135 ranged from 32 to around 60 (FIG. 32d), which indicates the potential of these fluorophores for the generation of permeable and fluorogenic probes. […] The possibility to tune the equilibrium between the open and closed form of the fluorophore by varying the substituents on the amide is an important feature of this approach.
Measurements of UV Absorbance Spectra in Water-Dioxane Mixtures
Solutions of 5 μM Rhodamine B, RhB-CH3 (201, Z=CH3), RhB-Ben (201, Z=CH2Ph), RhB-CN (201, Z=CN), RhB-SCH3 (115), RhB-SNH2 (116), RhB-SNMe2 (117), RhB-CONH2 (118), WS1-SCF3, (119) WS1-SCH3 (120), WS1-CN (121), WS1-SNH2 (122), WS1-SO (123), WS1-UREA (124) in water-dioxane mixtures containing 10%, 20%, 30%, 40%, 50%, 60%, 70%, 80% and 90% of dioxane (by volume) were prepared. The absorbance spectra were recorded using a Spark® microplate reader (Tecan). The spectra were integrated from 400 to 700 nm for Rhodamine B-based fluorophores and from 350 to 750 nm for WS1-based fluorophores using the software Prism 7. Normalized integrals were plotted against dielectric constant of water-dioxane mixture.

Series [2] has as its system U2OS FlpIn Halo-SNAP-NLS expressing cells. Kind of series: No-wash live-cell confocal imaging, nuclear versus cytosol signal. The class given is cell-based. As to conditions: for Fnuc./Fcyt.: average ratio between nuclear signal (U2OS FlpIn Halo-SNAP-NLS expressing cells) and cytosol signal (normal U2OS cell), ± s.e.m.; for nuclei to cytosol signal ratio (Fnuc/Fcyt): no-wash live-cell imaging, 250 nM for MaP555-SNAP and MaP700-Halo; for time to staining / saturation / completion of labeling: nuclear localized HaloTag in U2OS cells, 250 nM for MaP510-Halo and MaP700-Halo. The source says:
Self-labeling protein tags such as SNAP-tag and HaloTag are an efficient approach to attach synthetic fluorophores to proteins in living cells. The main challenge when using these tags for live-cell imaging is the low cell permeability of most fluorescent probes used for labeling and high background signal resulting from their unspecific binding. SNAP-tag fusion proteins can be specifically labeled with different fluorophores using appropriate O^6-benzlyguanine derivatives. A 6-TAMRA based probe (150) for SNAP-tag has been previously introduced for live-cell imaging, but its low cell-permeability and lack of fluorogenicity requires the use of high concentrations (5 μM) and repeated washing steps to remove excess and non-specifically bound probe. To address these problem, the inventors coupled fluorophores 132-135 to O^6-benzylguanine to obtain probes 152, 154, 156, and 158. […] The inventors then examined the performance of probes 150, 152, 154, 156, and 158 in live-cell imaging, in which U2OS cells stably expressing a nuclear localized SNAP-Halo fusion protein were co-cultured with regular U2OS cells not expressing any protein tags. […] Furthermore, the kinetics of labeling of nuclear localized SNAP-tag with MaP555-SNAP were much faster than those of control […]. The inventors then prepared the corresponding 6-TAMRA-based probes 151, 153, 155, 157, and 159 for HaloTag. As for SNAP-tag, the probe with the largest enhancement in absorbance (16-fold) and fluorescence intensity (35-fold) in in vitro assays was based on the N,N-dimethylsulfamide derivative 159 (abbreviated as MaP555-Halo in the following). […] The excellent performance of MaP555-SNAP and MaP555-Halo in live-cell imaging experiments support the inventors' assumption that establishing a dynamic equilibrium between the fluorescent zwitterion and the more hydrophobic spirolactam enables the generation of highly cell-permeable and fluorogenic probes for live-cell imaging.
Generation of U2OS FlpIn Halo-SNAP-NLS Cell Lines
The Flp-In™ System (ThermoFisher Scientific) was used to generated U2OS FlpIn Halo-SNAP-NLS expressing cells. pcDNA5-FRT-Halo-SNAP-NLS and pOG44 were co-transfected into the host cell line U2OS FLpIn (Malecki et al. Molecular and Cellular Biology 26, 4642 (2006)). Homologous recombination between the FRT sites in pcDNA5-FRT-Halo-SNAP-NLS and on the host cell chromosome, catalysed by the Flp recombinase expressed from pOG44, produced the U2OS FlpIn Halo-SNAP-NLS stably expressing cells.
Live-Cell Confocal Imaging
U2OS FlpIn Halo-SNAP-NLS expressing cells were grown in 96-well plate (Thermos Fisher) with optical bottom at 37° C. in a humidified 5% (vol/vol) CO2 environment. 50-500 nM probes and 2 μM verapamil were added and incubated for 1 h in DMEM media (Evrogen) containing 10% FBS. The cells were directly used to image without washing. Meanwhile, another group was imaged after being washed 2 times for 5 min with 1× phosphate buffered saline (PBS, pH 7.4) and DMEM supplemented with 10% FBS. Imaging was performed using Leica TCS SP8 confocal microscope. TMR- and Rhodamine B—, and Rhodamine 110-based probes were excited at 540 nm and the fluorescence signal was collected from 560-700 nm. Semi-Rhodamine-based probes were excited at 650 nm and the fluorescence signal was […] from 670-760 nm. Images were processed with Fiji (http://fiji.sc/wiki/index.php/Fiji) to obtain MIP (maximum intensity projections)

Another series relates to SNAP-Halo-tag. Put plainly: Increase in absorbance and fluorescence on binding to SNAP-HaloTag protein in vitro. The class given is biochemical. To be noted: for Φ / ε^protein / λabs / λem: binding with SNAP-Halo-tag; for F/F0: ± s.e.m.; for increase in absorbance / increase in fluorescence intensity: upon binding to HaloTag, in vitro. How it is done: Measurement of Increase in Absorbance and Fluorescence.
SNAP-HaloTag protein were used as a 85 μM-200 μM solution in 75 mM NaCl, 50 mM TRIS-HCl, pH 7.4 with 50% v/v glycerol (TBS-glycerol). SNAPTag and HaloTag based fluorogenic probes were diluted to 1.0-2.0 μM in 10 mM HEPES, pH 7.3. Then an aliquot of SNAPTag/HaloTag protein (1.5-2.0 equiv) was added and the resulting mixture was incubated until consistent absorbance signal was observed (˜60 min).
(§1) SDS (10% in 10 mM HEPES) was added with dilution of 100 folds as a control group. Absorbance and fluorescence measurements were performed in 96-well plate (Thermos Fisher) with optical bottom.

The nature of series [3]: UV-Vis and fluorescence spectroscopy of free dye or probe in buffer or SDS. To be noted: for Φ / ε^SDS: 0.1% SDS in HEPES buffer (pH 7.3); for ε: HEPES buffer (pH 7.3). In kind it is physicochemical. How it is done:
UV-Vis and Fluorescence Spectroscopy
Spectroscopy was performed using 96-well plate (Thermo Fisher) with optical bottom. All measurements were taken at ambient temperature (25±2° C.). Absorption and fluorescence spectra were recorded on Spark® microplate reader (Tecan). Maximum absorption wavelength (λabs), and maximum emission wavelength (λem) were taken in 10 mM HEPES, pH 7.3 buffer unless otherwise noted; reported values for ε are averages (n=3). Normalized spectra are shown for clarity.
as §1

The mark [4] stands for this setting: ratio of fluorescence intensities at 635 nm in the presence and absence of SNAP-Halo-tag.

Turning to `Cl.N=c1ccc2c(-c3ccccc3C(=O)O)c3ccc(N)cc3oc-2c1` [R110, Rhodamine 110, reference compound], the D50 in series [1] is 15.
On to `CN(C)c1ccc2c(c1)Oc1cc(N(C)C)ccc1C21c2cc(C(=O)NCCOCCOCCCCCCCl)ccc2C(=O)N1S(=O)(=O)N(C)C` [compound 159], for which the “signal and background in no-wash live-cell imaging” value in series [2] (U2OS cells, no washing) is given as “much lower background signal”. Moreover, the Fnuc./Fcyt. in series [2] is 18 ± 2.9^f. Also, the “intracellular kinetics of labeling relative to control probe” value in series [2] (nuclear localized SNAP-tag or HaloTag in U2OS cells) was “about two-fold faster”. Further, in the series on SNAP-Halo-tag, the Φ is given as 0.54, the “ε^protein” value is recorded as 87,000 M^−1cm^−1, the λabs came out at 558 nm and the λem was determined as 578 nm. In the series on SNAP-Halo-tag, the increase in absorbance is 16 fold and the “increase in fluorescence intensity” value turned out to be 35 fold. Also, the F/F0 in the series on SNAP-Halo-tag (ratio of fluorescence intensities at 580 nm in the presence and absence of SNAP-Halo-tag) is recorded as 35 ± 2.3^e. Besides, in series [3], the Φ is given as 0.63, the “ε^SDS” value was 92,000 M^−1cm^−1 and the ε is 5,200 M^−1cm^−1.
As for `CN(C)c1ccc2c(c1)C(C)(C)c1cc(N(C)C)ccc1C21c2cc(C(=O)NCCOCCOCCCCCCCl)ccc2C(=O)N1C#N` [compound 161], the Fnuc./Fcyt. in series [2] is reported as 19 ± 1.2^f. In addition, in the series with SNAP-Halo-tag, the Φ turned out to be 0.53, the “ε^protein” value is on record as 144,000 M^−1cm^−1, the λabs worked out at 618 nm and the λem is 635 nm. The F/F0 in the series on SNAP-Halo-tag (setting [4]) is given as 112 ± 3.8^e. Besides, in series [3], the Φ stood at 0.72, the “ε^SDS” value is 70,000^c M^−1cm^−1 and the ε is listed as 1,500 M^−1cm^−1.
For `CN(C)c1ccc2c(c1)C(C)(C)c1cc(N(C)C)ccc1C21c2cc(C(=O)NCCOCCOCCCCCCCl)ccc2C(=O)N1S(C)(=O)=O` [compound 163], the Fnuc./Fcyt. in series [2] is listed as 24 ± 1.8^f. For the same molecule, in the series on SNAP-Halo-tag, the Φ is reported as 0.50, the “ε^protein” value is 121,000 M^−1cm^−1, the λabs turned out to be 618 nm and the λem was 635 nm. The F/F0 with SNAP-Halo-tag (setting [4]) is on record as 179 ± 14^e. In series [3], the Φ is on record as 0.76, the “ε^SDS” value is on record as 45,000^c M^−1cm^−1 and the ε was 1,600 M^−1cm^−1.
For the molecule `CN(C)c1ccc2c(c1)C(C)(C)c1cc(N(C)C)ccc1C21c2cc(C(=O)NCCOCCOCCCCCCCl)ccc2C(=O)N1S(N)(=O)=O` [compound 165], the Fnuc./Fcyt. in series [2] is 30 ± 4.5^f. Moreover, in the series on SNAP-Halo-tag, the Φ is given as 0.58^b/—, the “ε^protein” value is listed as 101,000 M^−1cm^−1, the λabs stood at 618 nm and the λem stood at 635 nm. The F/F0 in the series with SNAP-Halo-tag (setting [4]) is reported as 611 ± 42^e. In series [3], the “ε^SDS” value is recorded as 8,300^c M^−1cm^−1 and the ε amounted to 440 M⁻¹ cm⁻¹.
Regarding `CN(C)c1ccc2c(c1)C(C)(C)c1cc(N(C)C)ccc1C21c2cc(C(=O)NCCOCCOCCCCCCCl)ccc2C(=O)N1S(=O)(=O)N(C)C` [compound 167], in series [2], the Fnuc./Fcyt. is recorded as 58 ± 3.9^f and the “time to staining / saturation / completion of labeling” value is recorded as not above 5 min. The “nuclei to cytosol signal ratio (Fnuc/Fcyt)” value in series [2] (U2OS cells) is given as 58. Besides, in the series on SNAP-Halo-tag, the Φ is 0.61^b/—, the “ε^protein” value is recorded as 107,000 M^−1cm^−1, the λabs amounted to 618 nm and the λem was 635 nm. The “increase in fluorescence intensity” value in the series on SNAP-Halo-tag worked out at 1000 fold. Also, the F/F0 in the series with SNAP-Halo-tag (setting [4]) is 1000 ± 44^e. In series [3], the “ε^SDS” value was 7,200^c M^−1cm^−1 and the ε came to 260 M⁻¹ cm⁻¹.
Consider `CN1CCc2cc3c(cc21)[Si](C)(C)c1cc2c(cc1C31c3cc(C(=O)NCCOCCOCCCCCCCl)ccc3C(=O)N1C#N)CCN2C` [compound 168], for which, in series [2], the Fnuc./Fcyt. is on record as 47 ± 3.4^f and the “time to staining / saturation / completion of labeling” value was not above 10 min. The “nuclei to cytosol signal ratio (Fnuc/Fcyt)” value in series [2] (U2OS cells) is on record as 47. In addition, in the series with SNAP-Halo-tag, the Φ turned out to be 0.24, the “ε^protein” value is listed as 52,000 M^−1cm^−1, the λabs was found to be 700 nm and the λem amounted to 720 nm. In addition, in the series on SNAP-Halo-tag, the increase in absorbance is 150 fold and the “increase in fluorescence intensity” value stood at 650 fold. In addition, the F/F0 with SNAP-Halo-tag (ratio of fluorescence intensities at 720 nm in the presence and absence of SNAP-Halo-tag) is given as 650 ± 5.8^e. In series [3], the Φ worked out at 0.18, the “ε^SDS” value is 12,000^c M^−1cm^−1 and the ε was 340 M⁻¹ cm⁻¹.

Source of the values: US12326385B2, “Cell-permeable fluorogenic fluorophores” (MAX-PLANCK-GESELLSCHAFT ZUR FÖRDERUNG DER WISSENSCHAFTEN E. …, priority 2018, dated 2025).
